A melting point compilation (Tetko et al.; mined from patent text by program, amines drawn as free bases though some values may be those of a salt)

Row | Compound | melting point
1 | CCC(=S)NC[C@H]1CN(c2ccc(N3CCN(C(=O)COc4ccc(CN5CCOCC5)cc4)CC3)c(F)c2)C(=O)O1 | 159 to 160 °C
2 | Fc1cccc(CSc2nnc(-c3ccn4ncnc4c3)o2)c1 | 153 to 154 °C
3 | N#Cc1c(Cl)cncc1Cl | 117 to 118 °C
4 | C=CCOc1ccc(CC(=O)NCC(=O)N[C@@H](Cc2c[nH]cn2)C(=O)OC)cc1Cl | 147 to 150 °C
5 | CC(=O)NCc1c(C)cc(CCl)cc1C | 193 to 194 °C
6 | CCCC(c1ccc(C)cc1)n1cncc1C(=O)OC (stereo not given) | 141 to 143 °C
7 | COc1ccc(CC(=O)O)cc1OCCCc1cn(-c2ccc(C(F)(F)F)cn2)nc1C1CCCCC1 | 117 to 118 °C
8 | O=C(CCCCNC(=O)C(=O)c1cn2c3c(cccc13)CCC2)NOCc1ccccc1 | 62 to 64 °C
9 | C=CCc1cc(C(=O)OCC)ccc1OCC1(O)CN2CCC1CC2 (stereo not given) | 143 to 145 °C
10 | CC(=O)c1ccc2c(c1)N(C)CCC2(C)C | 46 to 48 °C
11 | CC(C)c1cccc(-c2ccc(C(=O)NO)nc2)c1 | 130 to 135 °C
12 | CNC(=O)c1ccccc1-c1nc(-c2ccccc2)no1 | 145 to 146 °C
13 | CC1CN(c2cc3c(cc2F)c(=O)c(C(=O)O)cn3CCF)CCN1 (stereo not given) | 226 to 227 °C
14 | Cc1ccccc1C(=O)Nc1ccc(C(=O)N2Cc3ccccc3Cc3ccccc32)c(C)c1 | 112 to 114 °C
15 | CNc1nc(-c2cccc(C=O)c2)c2cc(OC)c(OC)cc2n1 | 110 to 112 °C
16 | CCCCCCCCCC(O)CCc1ccc(O)c(OC)c1 (stereo not given) | 66 to 68 °C
17 | COc1cc(-n2cnc3cc(-c4ccc(Cl)cc4)sc3c2=O)ccc1OC[C@H](OP(=O)(O)O)C1CC1 | 166 °C
18 | CC(=O)N1CCC(NC(=O)Nc2ccc(F)cc2)CC1 | 146 to 148 °C
19 | Nc1nc2cc(-c3cccc(C(=O)N4CCCC4)c3)ccc2c2c1nc(CO)n2CC1CCOCC1 | 281 to 284 °C
20 | CN(C)c1cc(Oc2cccc(C(F)(F)F)c2)nc(C(=O)Nc2ccccc2)c1 | 135 to 138 °C
21 | COc1cc2nc(C(=O)O)c(=O)n(C)c2cc1OC | 261 °C
22 | COc1ccc(O)c(C2(CO)C(=O)N(Cc3ccc(C(F)(F)F)o3)c3ccc(F)cc32)n1 (stereo not given) | 110 to 113 °C
23 | O=CNc1csc(Cl)n1 | 138 °C
24 | CC(C)(Cc1ccccc1)Nc1c(NCc2cc3cc(C#N)ccc3o2)c(=O)c1=O | 233 to 235 °C
25 | CC(C)(C)OC(=O)CN(C(=O)CNC(=O)Nc1ccccc1)c1ccccc1C(=O)c1ccccc1 | 166 to 167 °C

Row | Compound | melting point
26 | Oc1ccc2nc(-c3ccc(O)c(C45CC6CC(CC(C6)C4)C5)c3)[nH]c2c1 | 241 to 243 °C
27 | CC(=O)c1csc(-c2ccncc2)c1C | 87 to 87.5 °C
28 | CC(CNC(=O)OC(C)(C)C)n1nnnc1S (stereo not given) | 156 to 158 °C
29 | O=C(N[C@H]1CC[C@H](CCN2CCN(c3nccc4c3OCC4)CC2)CC1)c1ccc2ncccc2c1 | 212 °C
30 | O=C(O)c1cc([N+](=O)[O-])cc2ccc(-c3ccccc3)nc12 | 268 to 269 °C
31 | Cc1ccccc1-c1nc2c3ccccc3ccn2c1N=Cc1ccc2ccccc2c1Br | 250 to 252 °C
32 | Nc1ncccc1-c1nc2cc(-c3ccc(C(=O)O)o3)cnc2n1-c1ccc(CNC(=O)c2ccccc2)cc1 | 211 to 217 °C
33 | COC(=O)c1ccc(N2C(=O)C(O)=C(C(=O)c3ccc(C)cc3)C2c2ccc(C(C)(C)C)cc2)nc1 (stereo not given) | 287 to 288 °C
34 | Cc1ccc(CCC(=O)C(=[N+]=[N-])C(=O)CCc2ccc(C)cc2)cc1 | 45.6 to 46.8 °C
35 | CC(C)CNC(=O)[C@H](C)C[C@H](O)[C@H](CC1CCCCC1)NC(=O)OC(C)(C)C | 125 to 126 °C
36 | COC(=O)c1cc2c(N3CCNCC3)cccc2[nH]1 | 177 to 180 °C
37 | O=C1CCC(CCO)(c2ccc(F)c(F)c2)CN1Cc1ccccc1 (stereo not given) | 153 to 154 °C
38 | Nc1nc(N2CCOCC2)c2ncn(C3C=CC(CO)C3)c2n1 (stereo not given) | 165 to 167 °C
39 | CC(C)(CCn1cnc(-c2ccccc2)c1)NCC(O)c1ccc(O)c(NS(C)(=O)=O)c1 (stereo not given) | 133 to 136 °C
40 | Nc1nc2ccccc2c2c1nc(CO)n2CC1CCOCC1 | 239 to 241 °C
41 | CC(=O)NC[C@H]1CN(c2ccc(N3CCC(Cc4noc(-c5ccccc5)n4)CC3)c(F)c2)C(=O)O1 | 144 to 146 °C
42 | CC(OCc1cc2cc(Cl)ccc2n1S(=O)(=O)c1ccc2c(c1)OCCO2)C(=O)O (stereo not given) | 70 °C
43 | CCc1nc(OC)c(NC(=O)N2CCN(c3cc(OC)cc(OC)c3)CC2)cc1C(=O)Nc1cc(CO)cc(Nc2c3ccccc3nc3ccccc23)c1 | 170 to 172 °C
44 | CC(Oc1ccc2oc3cc(Cl)ccc3c2c1)C(N)=O (stereo not given) | 185 to 187 °C
45 | Oc1ccc(O)c2c1CC=CC2 | 208 to 211 °C
46 | CCOc1ccc(C=CC(=O)c2c(OCC)cc(OCC)cc2OC(=O)CC)cc1 | 84.5 °C
47 | Cc1ccc2c(C(=O)NC(C)C)c(NC(=O)c3cc(C(F)(F)F)nn3-c3ncccc3Cl)c(C)cc2n1 | > 240 °C
48 | O=C(O)CCc1ccc(OCc2ccccc2)cc1 | 123 to 124 °C
49 | O=S(=O)(Nc1cccc2c(O)cccc12)N1CCOCC1 | 220 to 223 °C
50 | CC1(C)CCC(=O)Nc2cc(OCCCN3CCN(c4cccc(Cl)c4Cl)CC3)ccc21 | 162 to 164 °C

Row | Compound | melting point
51 | CS(=O)(=O)c1nc2ncc(Cl)cc2s1 | 201 to 202 °C
52 | C[C@H](N)Cn1ncc2ccc(C(N)=O)cc21 | 170 to 172 °C
53 | Cc1ccc(S(=O)(=O)N=c2ccc(C)cn2-c2cccc(C(F)(F)F)c2)cc1 | 174 °C
54 | NCCCNC(=O)CCn1cnc2c(=O)[nH]cnc21 | 172 to 175 °C
55 | Cc1cc(C)c(C(=O)c2cccc(-n3ccnc3)c2)c(C)c1 | 134 to 136 °C
56 | COC(=O)[C@@H]1C[C@H](OC(=O)Nc2ccc([N+](=O)[O-])cc2)C(=O)[C@H]2[C@@]1(C)CC[C@H]1C(=O)O[C@H](c3ccoc3)C[C@]21C | 251 to 253 °C
57 | CCC(O)(c1ccc(F)cc1)c1ccc(OCCCN2CCN(Cc3ccccc3)CC2)cc1 (stereo not given) | 119 to 121 °C
58 | Cc1cccc(C(N)=NO)c1C | 110 to 111 °C
59 | Cc1c(C(=O)NC2C3(C)CCC(C3)C2(C)C)c2ccc(Cl)c(Cl)c2n1CCCNS(C)(=O)=O (stereo not given) | 150 to 154 °C
60 | CC(=O)OCC(CO)CCn1cnc2c(=O)[nH]c(N)nc21 (stereo not given) | 194 to 200 °C
61 | CC(=O)Oc1cc(OCC(OC(C)=O)c2ccc3c(c2)C(C)(C)CCC3(C)C)ccc1C(=O)O (stereo not given) | 88 to 89 °C
62 | COc1ccc2c(C)nc(=O)[nH]c2c1 | 251 to 254 °C
63 | Cc1ccccc1-c1cn2c(n1)-c1ccccc1Nc1ncccc1-2 | 215 to 217 °C
64 | N[C@@H](Cc1ccccc1)[C@@H](O)C(F)(F)C(=O)NCc1ccccc1 | 128 to 130 °C
65 | CCN(C)c1cc(F)cc(C(=O)Nc2ccc(OCCN3CCOCC3)c3ccccc23)c1 | 126 to 128 °C
66 | CCC(=O)NCCC1CCc2ccc3ncoc3c21 (stereo not given) | 89 to 90 °C
67 | Cc1ccc(Cc2cnc(NCCCN(Cc3ccc(Cl)cc3)c3ccccn3)[nH]c2=O)cn1 | 88 to 92 °C
68 | CCOP1(=O)OCC(C)(C)c2cc(OS(C)(=O)=O)ccc2O1 (stereo not given) | 113 to 115 °C
69 | O=C(NCC(O)c1ccccc1)c1ccccc1 (stereo not given) | 140 to 143 °C
70 | Cn1nc(N)nc1NCCCCOc1cccc(CN2CCCCC2)c1 | 82 to 82.5 °C
71 | NC(=O)CC(O)CCCCCNC(=O)OCc1ccccc1 (stereo not given) | 100 to 101 °C
72 | CC(CN(C)C)N1c2ccccc2Sc2ccc(C(=S)NCC3CCCCC3)cc21 (racemic) | 167 °C
73 | NCc1ccc([N+](=O)[O-])cc1O | 210 to 215 °C
74 | Cc1c(OCC(F)(F)F)ccnc1CS(=O)c1nc2ccccc2n1N (stereo not given) | 111 to 113 °C
75 | CCOC(=O)c1cc(CC)sc1Nc1cc(F)cc(F)c1[N+](=O)[O-] | 74 to 75 °C

Row | Compound | melting point
76 | CC(=O)N1N=C(c2ccncc2)OC1c1c(Cl)cccc1Cl (stereo not given) | 163 °C
77 | CC(O)C(=O)NC1CCC(CC2CCC(NC(=O)C(C)O)CC2)CC1 (stereo not given) | 195 to 199 °C
78 | CC(C)(C)c1cc(C(=O)CBr)cc2c1OCC2(C)C | 54 to 56 °C
79 | CC(=O)O[C@@H]1C=C2C=C3C(=C(C)C(=O)N3C)C[C@]2(C)[C@@H](C)[C@H]1O | 50 to 55 °C
80 | CSc1cn(C)c2sccc2c1=O | 138 to 140 °C
81 | Cc1ccc(S(=O)(=O)OCCOCn2cc(F)c(=O)[nH]c2=O)cc1 | 141 to 142 °C
82 | Cc1[nH]cnc1C=C1CC2CCCn3c2c(c2ccccc23)C1=O (stereo not given) | 289 to 290 °C
83 | C#CCN(C(=O)CO)c1c(C)nc(N(C)C)nc1C | 128 to 130 °C
84 | CCOC(=O)c1ccc([N+](=O)[O-])c(O)c1Br | 58 to 61 °C
85 | O=C(O)C(Oc1ccc(Cl)cc1)Oc1ccc(C2CCNc3ccccc32)cc1 (stereo not given) | 152 to 155 °C
86 | CNC(=O)n1c(N=Cc2ccc([N+](=O)[O-])o2)nc2ccccc21 | 170 to 171 °C
87 | CC(=O)NCC1CCC(Nc2nc3c(s2)CCCc2ccc(F)cc2-3)CC1 (stereo not given) | 88 to 91 °C
88 | C=Cc1c(N)nc(-c2ccc(Cl)nc2)nc1C(=O)OC | 194 to 195 °C
89 | CCOC(=O)CN(CP(=O)(ONC1CCCCC1)ONC1CCCCC1)C(=O)C(F)(F)F | 118 to 123 °C
90 | FC(F)=C(F)CC(=S)Nc1ccccc1 | 65 to 67 °C
91 | CCOC(=O)C1CC2C(=O)N=C(C(C)C)C=C2S1=N (stereo not given) | 182 to 183 °C
92 | CC(C)(C)c1cc(CCC(=O)NN2C(=O)C=CC2=O)cc(C(C)(C)C)c1O | 90 to 94 °C
93 | COc1ccc(C2=CCCCc3cc(OCc4ccccc4)ccc32)cc1 | 76 to 78 °C
94 | CCNc1nc(-c2ccc(NC(=O)NCc3cccnc3)cc2)ccc1C(=O)O | 216 to 218 °C
95 | CC(=O)OCC(=O)C1=CCC2C3CCC4=CC(=O)C=CC4(C)C3(F)C(O)CC12C (stereo not given) | 223 to 225 °C
96 | CCCCCCCCCCCCCCCCCCOC[C@H](CO)OC(=O)NC | 68 to 69 °C
97 | c1ccc(Cc2nc3cnc4ccccc4c3s2)cc1 | 111 to 113 °C
98 | CCCC1=C(C#N)C(c2ccccc2Cl)c2c(n[nH]c2-c2ccco2)N1 (stereo not given) | 253 °C
99 | Cc1ccc(S(=O)(=O)N2CCc3ccccc3C(Oc3ccc(C(F)(F)F)cc3)C2)cc1 (stereo not given) | 114 to 115 °C
100 | NC(=NO)c1ccc(C(F)(F)F)cn1 | 130 to 133 °C
